From patent US20140377219A1, “HIV INHIBITORS” (New york Blood Center, Inc., priority 2011, published 2014)
Read-outs that look alike come from different tables or passages of the source.

Tests used:
TZM-bl cells = experiment: Cytotoxicity in TZM-bl cells (XTT); type: cell-based
In short: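 TZM-bl cells (10^5/ml) combined with equal volumes of compound at graded concentrations and incubated 3 days at 37° C. Viability measured colorimetrically by XTT tetrazolium dye reduction.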

PBMC = experiment: Cytotoxicity in PBMC (XTT); type: cell-based
Procedure: Cytotoxicity of small molecules in MT-2 cells and PBMC was measured by the XTT ((sodium 3′-(1-(phenylamino)-carbonyl)-3,4-tetrazolium-bis(4-methoxy-6-nitro)benzene-sulfonic acid hydrate)) method. Briefly, for MT-2 cells, 100 μl of a small molecule at graded concentrations was added to an equal volume of cells (10^5 cells/ml) in 96-well plates followed by incubation at 37° C. for four days, which ran parallel with the neutralization assay in MT-2 (except medium was added instead of virus). In the case of PBMC, 5×10^5 cells/ml was used and the cytotoxicity was measured after seven days. […] The percentage cytotoxicity and the CC50 values were calculated as described above.

[1] = test system: Panel C env Du156, clone 12 (SVPC3); type: cell-based; conditions: TZM-bl, read-out: IC50 (μM) ± S.D., antiviral activity against HIV-1 envelope pseudoviruses
[2] = test system: Panel C env ZM-135M.PL10a, SVPC15; type: cell-based; conditions: TZM-bl, read-out: IC50 (μM) ± S.D., antiviral activity against HIV-1 envelope pseudoviruses
gp120-CD4 interaction = gp120-CD4 interaction (Human immunodeficiency virus type 1 group M subtype B, UniProt P03375); type: binding; conditions: FIG. 7
[3] = test system: primary HIV-1 isolate 93BR029 (clade F, R5); experiment: Neutralization assay in PBMC (p24 ELISA); conditions: read-out: IC50 (μM) ± S.D., inhibitory activity on infection; 93BR029, subtype F, PBMC, R5, primary isolate
Procedure: (§2) PBMCs were isolated from the blood of healthy donors at the New York Blood Center by standard density-gradient centrifugation using Histopaque-1077 (Sigma-Aldrich). The cells were cultured at 37° C. for 2 h. Non-adherent cells were collected and resuspended at 5×10^6 cells/ml in RPMI-1640 medium containing 10% (v/v) fetal bovine serum, 5 μg/ml of phytohemagglutinin, and 100 U/ml of IL-2 (Sigma-Aldrich), followed by incubation at 37° C. for three days.

[4] = test system: primary HIV-1 isolate RU570 (clade G, R5); experiment: Neutralization assay in PBMC (p24 ELISA); conditions: read-out: IC50 (μM) ± S.D., inhibitory activity on infection; RU570, subtype G, PBMC, R5, primary isolate
Procedure: as §2

[5] = test system: primary HIV-1 isolate 92US657 (subtype B, R5); experiment: Neutralization assay in PBMC (p24 ELISA); conditions: read-out: IC50 (μM) ± S.D., inhibitory activity on infection; 92US657, subtype B, PBMC, R5, primary isolate
Procedure: as §2

HIV-1 MN = experiment: Multi-cycle neutralization assay in MT-2 cells; conditions: read-out: IC50 (μM) ± S.D., inhibitory activity on infection; MN, subtype B, MT-2, X4, laboratory strain
Procedure: In brief, 1×10^4 MT-2 cells were infected with HIV-1 at 100 TCID50 (50% tissue culture infective dose) (0.01MOI) in 200 μl medium in the presence or absence of small molecules at graded concentrations and incubated overnight. The culture supernatants were then removed and replaced with fresh media. On the fourth day post-infection, 100 μl of culture supernatants were collected from each well, mixed with equal volume of 5% Triton X-100 and tested for p24 antigen by sandwich-ELISA. The percent inhibition of p24 production and IC50 values were calculated by the GraphPad Prism software (GraphPad Software Inc.).

[6] = test system: AZT-resistant (AZT-R) HIV-1 strain; experiment: Multi-cycle neutralization assay in MT-2 cells; conditions: read-out: IC50 (μM) ± S.D., inhibitory activity on infection; AZT-R, subtype B, MT-2, X4, RT-resistant isolate
HIV-1 RF = experiment: Multi-cycle neutralization assay in MT-2 cells; conditions: read-out: IC50 (μM) ± S.D., inhibitory activity on infection; RF, subtype B, MT-2, R5X4, laboratory strain
HIV-1IIIB gp120 and sCD4 = target: T1, HIV-1IIIB gp120 and sCD4 (Human immunodeficiency virus type 1 group M subtype B, UniProt P03375); experiment: biochemical; type: binding; conditions: captured ELISA, sCD4 0.25 μg/ml; read-out: IC50 (μM ± SD), interaction HIV-1IIIB gp120 and sCD4
T1 construct: recombinant gp120 from HIV-1IIIB and HIV-1MN
Procedure: (§1) The compounds were incubated at graded concentrations with sCD4 (0.25 μg/ml) in the wells of polystyrene plates containing recombinant gp120, which was captured by coating the plates with a sheep anti-gp120 antibody D7324.

HIV-1MN gp120 and sCD4 = target: T2, HIV-1MN gp120 and sCD4 (Human immunodeficiency virus type 1 group M subtype B, UniProt P05877); experiment: biochemical; type: binding; conditions: captured ELISA, sCD4 0.25 μg/ml; read-out: IC50 (μM ± SD), interaction HIV-1MN gp120 and sCD4
T2 construct: recombinant gp120 from HIV-1IIIB and HIV-1MN
Procedure: as §1

[7] = test system: CD4-dependent virus (ADA); type: cell-based; conditions: ADA in Cf2Th-CD4+-CCR5+ target cells, FIG. 5; read-out: IC50, inhibition of the CD4-dependent virus
gp120 = gp120 (Human immunodeficiency virus type 1 group M subtype B, UniProt P03375); experiment: biochemical; type: binding, HIV-1; conditions: SPR, ligand gp120
CD4 = CD4 (Homo sapiens, UniProt P01730); experiment: Surface plasmon resonance (SPR), ligand CD4; type: binding; conditions: SPR
[8] = TZM-bl cells, XTT, 3 days, read-out: TZM-bl cells CC50 (μM ± SD)
[9] = at the dose given as CC50 bound
[10] = PBMC, XTT, seven days, read-out: PBMC CC50

| SMILES | CC50 (TZM-bl cells) | CC50 (PBMC) | IC50 [1] | IC50 [2] | inhibition of the gp120-CD4 interaction (gp120-CD4 interaction) | IC50 [3] | IC50 [4] | IC50 [5] | IC50 (HIV-1 MN) | IC50 [6] | IC50 (HIV-1 RF) | CC50 (TZM-bl cells; [8]) | % toxicity at that dose (number in parenthesis), TZM-bl cells (TZM-bl cells; [9]) | CC50 (PBMC; [10]) | also measured |
| --- | --- | --- | --- | --- | --- | --- | --- | --- | --- | --- | --- | --- | --- | --- | --- |
| Cc1nc(C(NC(=O)C(=O)Nc2ccc(Cl)cc2)C2CCCCN2)sc1CO.Cl (stereo not drawn) [Compound 6, N^1-(4-chlorophenyl)-N^2-((5-(hydroxymethyl)-4-methylthiazol-2-yl)(piperidin-2-yl)methyl)oxalamide.HCl] | > 22 µM | > 160 µM | 4.6 ± 0.13 µM | 0.73 ± 0.13 µM | inhibit gp120-CD4 interaction in a dose dependent manner | 8 ± 1.3 µM | 8.5 ± 0.8 µM | 8.6 ± 0.9 µM | 4 ± 0.9 µM | 4.4 ± 1.1 µM | 9.6 ± 0.8 µM |  |  |  | % toxicity at that dose (number in parenthesis), TZM-bl cells (TZM-bl cells): 10% |
| Cc1ccc(NC(=O)C(=O)NC(c2nc(C)c(CO)s2)C2CCCCN2)cc1F.Cl (stereo not drawn) [Compound 28, N^1-(3-fluoro-4-methylphenyl)-N^2-((5-(hydroxymethyl)-4-methylthiazol-2-yl)(piperidin-2-yl)methyl)oxalamide.HCl] |  |  |  |  |  | 5.2 ± 1.1 µM | 15.7 ± 0.2 µM | 12.3 ± 1.3 µM | 24.6 ± 4.6 µM | 5.5 ± 0.7 µM | 11 ± 0.6 µM | > 88 µM | 0% | ~106 µM |  |
| Cc1nc(C(NC(=O)C(=O)Nc2ccc(Cl)c(F)c2)C2CCCCN2)sc1CCO.Cl (stereo not drawn) [Compound 39, N^1-(4-chloro-3-fluorophenyl)-N^2-((5-(2-hydroxyethyl)-4-methylthiazol-2-yl)(piperidin-2-yl)methyl)oxalamide.HCl] | ~61 µM | > 81 µM | 1.7 ± 0.2 µM | 0.61 ± 0.1 µM |  | 8.3 ± 0.7 µM | 10.7 ± 0.5 µM | 7.1 ± 0.9 µM | 16.7 ± 1.5 µM | 6.8 ± 0.6 µM | 11.8 ± 1.2 µM |  |  |  | % toxicity at that dose (number in parenthesis), PBMC (PBMC): (20%) |
| CC1(C)CC(NC(=O)C(=O)Nc2ccc(Cl)cc2)CC(C)(C)N1 [NBD-556, reference compound] |  |  |  | 1.5 ± 0.01 µM | in a dose dependent manner | 40 ± 10.6 µM | 19.5 ± 2.3 µM | 48 ± 1.65 µM | 15.9 ± 1.6 µM | 58 ± 14.3 µM | 18.7 ± 1.3 µM | > 60 µM | 10% | 961 µM | IC50 (HIV-1IIIB gp120 and sCD4): 2.11 µM; IC50 (HIV-1MN gp120 and sCD4): 5.66 ± 0.8 µM; IC50 [7]: 22.6 µM; Rmax (RU) (gp120): 6.99 RU; binding to CD4 (CD4): not to CD4 |
